The target of one series is T1, cloned human M1 mAChRs (Homo sapiens, UniProt P11229).
T1 construct: purchased Perkin Elmer; host or cells: stably transfected CHO-K1 cell lines (membrane preparation)
T1 sequence (P11229 1-460): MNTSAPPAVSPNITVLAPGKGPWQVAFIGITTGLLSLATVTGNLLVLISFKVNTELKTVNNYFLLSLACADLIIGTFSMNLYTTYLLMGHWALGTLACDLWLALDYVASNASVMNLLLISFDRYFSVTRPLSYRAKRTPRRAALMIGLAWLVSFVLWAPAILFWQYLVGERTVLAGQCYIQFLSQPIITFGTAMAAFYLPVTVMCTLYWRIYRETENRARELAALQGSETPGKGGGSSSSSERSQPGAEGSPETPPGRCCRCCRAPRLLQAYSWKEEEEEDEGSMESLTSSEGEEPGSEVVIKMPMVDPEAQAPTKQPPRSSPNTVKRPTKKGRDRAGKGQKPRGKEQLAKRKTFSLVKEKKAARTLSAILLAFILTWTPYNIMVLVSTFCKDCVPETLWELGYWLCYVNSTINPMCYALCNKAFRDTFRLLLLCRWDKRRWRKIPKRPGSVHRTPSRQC
The series is described as follows: M1 mAChR radioligand binding assay ([3H]N-methylscopolamine displacement).

Series [1] relates to amyloid β25-35 peptide-induced toxicity in mice. As to conditions: cited from earlier work.
Series [2] concerns SH-SY5Y neuroblastoma cells. The conditions noted are these: cited from earlier work.
The test system of the next series is cholinesterase. More on the design: method as in PMID 20030514. As to conditions: cited from earlier work.
Series [3] concerns streptozotocin-induced diabetic rats. Set-up: method as in PMID 23415807. The conditions noted are these: cited from earlier work.
The next series has as its system CLK1. More on the design: method as in PMID 22673832. As to conditions: cited from earlier work.
In a further series the test system is DYRK1A. Set-up: method as in PMID 22673832. The conditions noted are these: cited from earlier work.
Setting [4] is: displacement of [3H]N-methylscopolamine 0.2 nM, M1 mAChR membranes from CHO-K1 cells, 27 °C, 120 min, mean ± SEM (n = 2), read-out: IC50.
The mark [5] stands for this setting: Cheng-Prusoff from IC50, [3H]N-methylscopolamine 0.2 nM, M1 mAChR membranes from CHO-K1 cells, mean ± SEM (n = 2), read-out: Ki.

Structures are written as SMILES. Where two headings read alike, the source gives them in different places.

For orientation: IC50 means the concentration needed to halve the response being measured. The compound `COc1cc(OC)c2c(=O)cc(-c3ccc(OC)c(OC)c3)oc2c1` [Compound 1, 3',4',5,7-Tetramethoxyflavone] came in with an IC50 at cloned human M1 mAChRs of more than 10000 µM.
The term melting point denotes the temperature of the solid-liquid transition. Take `COc1cc(OC)c2c(=O)cc(-c3cc(OC)c(OC)c(OC)c3)oc2c1` [Compound 2, 3',4',5',5,7-Pentamethoxyflavone]: the melting point is 195 °C. Moreover, on cloned human M1 mAChRs (setting [4]), the half-inhibitory concentration (IC50) is more than 10000 µM.
`COc1ccc(-c2cc(=O)c3c(OC)c(OC)c(OC)cc3o2)cc1OC` [Compound 3, 3',4',5,6,7-Pentamethoxyflavone]: on cloned human M1 mAChRs (setting [4]), the IC50 was more than 10000 µM.
The Ki is a dissociation constant, usually derived from enzyme kinetics or from competition with a known ligand. For `COc1cc(-c2cc(=O)c3c(OC)c(OC)c(OC)cc3o2)cc(OC)c1OC` [Compound 4, 3',4',5',5,6,7-Hexamethoxyflavone], on cloned human M1 mAChRs (setting [5]), the Ki was found to be 107 ± 11 µM. The IC50 at cloned human M1 mAChRs (setting [4]) is 257 ± 27 µM.
The compound `O=c1cc(-c2ccc(O)cc2)oc2cc(O)cc(O)c12` [Compound 5, Apigenin] yielded an IC50 on cloned human M1 mAChRs of more than 10000 µM.
Turning to `O=c1cc(-c2ccc(O)c(O)c2)oc2cc(O)cc(O)c12` [Compound 6, Luteolin], the “effect against amyloid β25-35 peptide-induced toxicity” value in series [1] is “anti-amnesic effects”. On cloned human M1 mAChRs, this compound displayed an IC50 of 226 ± 14 µM and a Ki of 94 ± 6 µM. For the same compound, the “effect on hydrogen peroxide-induced apoptosis” value in series [2] is listed as “protective effects”. Further, in the series on cholinesterase, the cholinesterase inhibitory activity result is recorded as “cholinesterase inhibitory activity”. Moreover, the “effect on cognitive decline” value in series [3] is “attenuation of cognitive decline”.
As to `O=c1c(O)c(-c2ccc(O)c(O)c2)oc2cc(O)ccc12` [Compound 8, Fisetin], the IC50 on cloned human M1 mAChRs (setting [4]) was more than 10000 µM.
Turning to `COc1cc(O)c2c(=O)c(O)c(-c3ccc(OC)c(O)c3)oc2c1` [Compound 9, 3ʹ,3,5-Trihydroxy-4ʹ,7-dimethoxyflavone], in the series on CLK1, the “inhibition of CLK1 kinase” value was “potent inhibitor”. In addition, the Ki at cloned human M1 mAChRs (setting [5]) was 42 ± 3 µM. Also, on cloned human M1 mAChRs (setting [4]), the IC50 came out at 101 ± 6 µM. Besides, in the series with DYRK1A, the “inhibition of DYRK1A kinase” value was “potent inhibitor”.
`COc1ccc(-c2oc3cc(OC)c(OC)cc3c(=O)c2O)cc1OC` [Compound 10, 3-Hydroxy-3ʹ,4ʹ,6,7-tetramethoxyflavone]: the melting point lay in the range of 225 to 226 °C. Further, at cloned human M1 mAChRs (setting [4]), the IC50 was more than 10000 µM.
Consider `O=c1c(O)c(-c2ccc(O)cc2)oc2cc(O)cc(O)c12` [Compound 11, Kaempferol], for which the half-maximal inhibitory concentration (IC50) at cloned human M1 mAChRs (setting [4]) was more than 10000 µM.
Consider `O=c1c(O)c(-c2ccc(O)c(O)c2)oc2cc(O)cc(O)c12` [Compound 12, Quercetin], for which the IC50 at cloned human M1 mAChRs (setting [4]) is more than 10000 µM.
`O=c1c(O)c(-c2cc(O)c(O)c(O)c2)oc2cc(O)cc(O)c12` [Compound 13, Myricetin] yielded an IC50 on cloned human M1 mAChRs of more than 10000 µM.

Values taken from publication PMC6270666, “Flavonoids with M1 Muscarinic Acetylcholine Receptor Binding Activity” (Molecules, 2014).
